“Also recorded” adds a separate entry of the source.
Test system: B16-F10 melanoma cells
Experiment: B16-F10 melanoma tumor growth in wild type and ACE 10/10 mice with co-administered drug
Assay type: in vivo, mouse
Details: intradermal B16-F10 melanoma
Experimental: Quantitation of B16-F10 tumor growth in wild type and ACE 10/10 mice was also conducted between groups in which the ACE inhibitor captopril was also administered. […] This experiment establishes that it is the presence of ACE in the ACE 10/10 mice that is important in the observed effects on tumor growth compared to wild-type mice.
B16-F10 tumor protocol. B16-F10 melanoma cell line was obtained from ATCC (American Type Culture Collection, Manassas, Va., USA). Cells were cultured in DMEM supplemented with 4 mM L-glutamine, 4.5 g/l glucose, 10% FBS, and antibiotics under humidified air with 5% CO2 at 37° C. […] The supernatant was removed, cell pellets were resuspended in PBS, and the cell number was counted.
Mice aged 8 to 12 weeks received exponentially growing cells (1×10^6) interdermally into the dorsal skin using a disposable 27-gauge needle under anesthesia (28 mg/kg avertin, intraperitoneally). Measurements of tumor size (longest and shortest diameters) were done using calipers at the 11th and 14th day, and body weight was measured at the day of inoculation (Day 0) and at harvesting (the 14th day), respectively. Tumor volume was calculated by the formula for a prolate spheroid according to the equation (L [longest diameter] H S2 [shortest diameter] H 0.52)=tumor volume.

Row | Compound | B16-F10 tumor growth (resistance of ACE 10/10 mice to melanoma)
1 | CCCCc1nc(Cl)c(CO)n1Cc1ccc(-c2ccccc2-c2nn[nH]n2)cc1 [losartan] | does not inhibit the ability of the ACE 10/10 mice to resist melanoma; also recorded: did not inhibit the ability of the ACE 10/10 mice to resist melanoma growth
2 | C[C@H](CS)C(=O)N1CCC[C@H]1C(=O)O [captopril] | comparable to wild-type mice in terms of susceptibility to tumor growth

Reference: US20090217402A1, “METHODS AND COMPOSITIONS FOR MODULATING THE ACTIVITY OF PEPTIDASES IN MACROPHAGE AND MACROPHAGE-LIKE CELLS” (Emory University, priority 2005, published 2009)
